From patent US4049660A, “N-substituted derivatives of 4 (N-piperazinylmethyl) spiro dibenzocycloheptadi- (or tri-) ene-5, 2-dioxolane (1,3) their method of preparation and their application in therapeutics” (Delalande S.A., priority 1971, dated 1977)
Read-outs that look alike come from different tables or passages of the source.

How the values were obtained:
[1] = test system: isolated duodenum of a rat (barium chloride); experiment: Spasmolytic: contraction by barium chloride of isolated duodenum of a rat
Protocol: Compounds of formula I, introduced in the survival medium, are capable of opposing the contacting action of barium chloride on the isolated duodenum of a rat. This activity is determined either by taking papaverine as the standard or by calculating the DE50 of the compound tested.

[2] = test system: painful stretchings following intraperitoneal injection of acetic acid; experiment: Analgesic: painful stretchings following intraperitoneal acetic acid in mouse; assay type: in vivo; conditions: 100 mg/kg/PO, read-out: Percentage reduction in the number of painful stretchings
From the text: The compounds of formula (I) administered orally to a mouse are capable of reducing the number of painful stretchings following the intraperitoneal injection of acetic acid.

[3] = test system: ventricular fibrillations caused by inhaling chloroform; experiment: Antiarythmic: ventricular fibrillations caused by inhaling chloroform in mouse; assay type: in vivo; conditions: ip, intraperitoneal, read-out: Antagonism to fibrillations caused by chloroform with a mouse, DE50
From the text: Administered intraperitoneally, the compounds of formula (I) are able to protect the mouse against ventricular fibrillations caused by inhaling chloroform.

[4] = test system: isolated fundus of rats (serotonine); experiment: Antiserotonine: contractions of the isolated fundus of rats provoked by serotonine; conditions: in vitro
From the text: (§1) For purposes of comparison, compounds of the formula (I) were compared, as to their antiserotonine properties, with a respresentative sampling of compounds disclosed in U.S. Pat. No. 3,726,900. The comparison compounds tested have the formula [drawing 23]

[5] = Acute toxicity / mortality, oral, mice; assay type: in vivo; conditions: mouse, in vivo; for mortality: read-out: Percentage of mortality with mice; for LD50: oral
From the text: As is shown by the preceding results and by those given in Table XIV below, the difference between pharmacologically active doses and lethal doses is sufficiently great to allow the use of compounds of formula (I) in therapeutics.

[6] = test system: cough caused by stimulation of the upper laryngeal nerve; experiment: Anti-cough: cough caused by stimulation of the upper laryngeal nerve in an anaesthetized cat; assay type: in vivo
arterial pressure = experiment: Hypotensive: arterial pressure of anaesthetized rat; assay type: in vivo; conditions: 2 mg/kg/IV
From the text: Administered intravenously to an anaesthetized rat, the compounds of formula (I) cause a lowering of arterial pressure.

[7] = test system: ptosis caused by reserpine; experiment: Anti-depressive: antagonism against ptosis caused by intravenous reserpine; assay type: in vivo; conditions: for Antagonism against ptosis caused by reserpine: at 100 mg/kg/PO; for ED50: po, Table XIII, read-out: Antagonism against ptosis caused by reserpine (DE50)
Protocol: (§2) In this regard, the compounds of formula I differ unexpectedly from the compounds of U.S. Pat. No. 3,726,900, as shown by comparative testing.
(§3) The anti-depressive properties of additional analog compounds were tested by the same tests. In these tests, the comparison compounds had the formula [drawing 28] The specific compounds tested and the test results are indicated in Table XIII.

[8] = test system: lethal effect of yohimbine; experiment: Anti-depressive: potentialization of lethal effect of yohimbine; assay type: in vivo
Protocol: as §2, §3

[9] = test system: bronchoconstrictions provoked by serotonine; experiment: Antiserotonine: bronchoconstrictions provoked by intravenous serotonine in guinea pigs (Konzett and Rossler test); assay type: in vivo; conditions: Cavia porcellus, serotonine bronchoconstriction, read-out: Test of Konzett and Rossler DE50
From the text: as §1

[10] = test system: isolated tied uterus (serotonine); experiment: Antiserotonine: contractions of the isolated tied uterus provoked by serotonine; conditions: in vitro
From the text: as §1

[11] = test system: local edema caused by carraghenine; experiment: Antiinflammatory: local plantar edema caused by carraghenine in rat; assay type: in vivo; conditions: 100 mg/kg/PO
From the text: These properties bring about a reduction of the local edema, caused by injecting a rat under the plantar with a phlogogenic agent such as carraghenine, following oral administration of compounds of formula (I).

[12] = test system: isolated ileum of a guinea pig (histamine); experiment: Antihistamine: contraction by histamine of isolated ileum of a guinea pig
Protocol: The compounds of formula (I) introduced in the survival medium are able to oppose the contracting action of histamine on the isolated ileum of a guinea pig. This activity is calculated by the DE50 of the tested compounds.

urinary elimination = experiment: Diuretic: volume of urine in mouse; assay type: in vivo; conditions: 12.5 mg/kg/PO, 4 hours, versus controls, read-out: Percentage increase in urinary elimination
Protocol: The compounds of formula (I) administered orally to a mouse simultaneously with a volume of 1 ml of sodium chloride isotonic solute per 25 g of body weight are able to cause an increase of the volume of urine given compared with controls, this volume being measured for the 4 hours following administration.

[13] = mice, Table XI, read-out: LD50 (mice)
[14] = at 100 mg/kg/PO, result in words

Question: For `CCCN(CCC)C(=O)CN1CCN(CC2COC3(O2)c2ccccc2C=Cc2ccccc23)CC1` (stereo not drawn) [compound 7204, -4'-[N'-(di-n-propylaminocarbonylmethyl) N-piperazinylmethyl] spiro [dibenzo(a,d)cycloheptatriene-5:2' dioxolane (1',3')] dimaleate], which “DE50 (spasmolytic)” value [1] is on record?
Answer: Its value is 2.50 µg/mL.

Question: What about the inhibition in vivo at 100 mg/kg [2] of the same compound?
Answer: Its inhibition in vivo at 100 mg/kg is 70%.

Question: And the ED50 [3]?
Answer: Its ED50 is 100 mg/kg.

Question: What about the Antagonisms against contractions of fundus of rat, DE50 [4] of the same compound?
Answer: Its Antagonisms against contractions of fundus of rat, DE50 is 0.07 µg/mL.

Question: And the mortality ([5]; 1900 mg/kg/PO)?
Answer: The mortality was roughly 50%.

Question: And the LD50 [5, 13]?
Answer: Its LD50 is 1900 mg/kg.

Question: With `OCC(O)CN1CCN(CC2COC3(O2)c2ccccc2CCc2ccccc23)CC1` (stereo not drawn) [compound 70405, 4'-N'-(2",3"-dihydroxy "-propyl)N-piperazinyl methyl spiro dibenzo (a,d) cycloheptadiene-5:2' dioxolane (1',3') dimaleate] as the compound, how does the “Reduction of cough, duration” value ([6]; 100 mg/kg/ID) read?
Answer: The value was 60 mm.

Question: And the “Reduction of cough, intensity” value ([6]; 100 mg/kg/ID)?
Answer: Its value is 100%.

Question: And the “Reduction of arterial pressure, duration” value (arterial pressure)?
Answer: Its value is greater than 60 mm.

Question: And the “Reduction of arterial pressure, intensity” value (arterial pressure)?
Answer: Its value is 40%.

Question: What about the mortality ([5]; 1600 mg/kg/PO) of the same compound?
Answer: The mortality was roughly 50%.

Question: Which “Reduction of arterial pressure, duration” value (arterial pressure) does the source give for `c1ccc(C(c2ccccc2)N2CCN(CC3COC4(O3)c3ccccc3CCc3ccccc34)CC2)cc1` (stereo not drawn) [compound 70374] here?
Answer: Its value is 20 mm.

Question: What about the “Reduction of arterial pressure, intensity” value (arterial pressure) of the same compound?
Answer: The value was 35%.

Question: What about the mortality ([5]; 2000 mg/kg/PO) of the same compound?
Answer: The mortality was 0%.

Question: What about the LD50 ([5]; Table XII, read-out: LD50) of the same compound?
Answer: The LD50 was greater than 2000 mg/kg.

Question: What about the “Antagonism against ptosis caused by reserpine” value [7] of the same compound?
Answer: Its value is “Inactive”.

Question: And the “Potentialization of lethal effect of yohimbine” value [8, 14]?
Answer: The value was “Inactive”.

Question: What does the source list for `O=C(CN1CCN(CC2COC3(O2)c2ccccc2CCc2ccccc23)CC1)N1CCOCC1` (stereo not drawn) [compound 70357]?
Answer: Reduction of cough, duration ([6]; 2 mg/kg/IV): 20 mm; Reduction of cough, intensity ([6]; 2 mg/kg/IV): 100%; Spasmolytic activity ([1]; relative to papaverine as the standard): 1.5 × papaverine; ED50 [9]: 0.005 mg/kg; Antagonisms against contractions of tied uterus, DE50 [10]: 0.005 µg/mL; Antagonisms against contractions of fundus of rat, DE50 [4]: 0.54 µg/mL; mortality ([5]; 1300 mg/kg/PO): ~50%; LD50 [5, 13]: 1300 mg/kg; Antagonism against ptosis caused by reserpine [7]: Inactive; Potentialization of lethal effect of yohimbine [8, 14]: Inactive

Question: What does the source list for `CNCC1COC2(O1)c1ccccc1C=Cc1ccccc12` (stereo not drawn) [R = CH3 (--Z-- = --CH = CH--), reference compound]?
Answer: LD50 ([5]; Table XIII, read-out: LD50): 750 mg/kg; ED50 [7]: 25 mg/kg

Question: For `OCC(O)CN1CCN(CC2COC3(O2)c2ccccc2C=Cc2ccccc23)CC1` (stereo not drawn) [compound 72196], which “DE50 (spasmolytic)” value [1] is on record?
Answer: The value was 0.25 µg/mL.

Question: And the inhibition in vivo at 100 mg/kg [2]?
Answer: The inhibition in vivo at 100 mg/kg was 45%.

Question: And the “Percentage reduction of the edema” value [11]?
Answer: The value was 70%.

Question: What about the “Antihistamine activity DE50” value [12] of the same compound?
Answer: Its value is 1 µg/mL.

Question: What about the change in vivo at 12.5 mg/kg (urinary elimination) of the same compound?
Answer: The change in vivo at 12.5 mg/kg was 40%.

Question: And the mortality ([5]; 1100 mg/kg/PO)?
Answer: Its mortality is roughly 50%.

Question: What about the LD50 [5, 13] of the same compound?
Answer: The LD50 was 1100 mg/kg.

Question: For `O=C(CN1CCN(CC2COC3(O2)c2ccccc2C=Cc2ccccc23)CC1)N1CCOCC1` (stereo not drawn) [compound 71564], which “DE50 (spasmolytic)” value [1] is on record?
Answer: The value was 2.50 µg/mL.

Question: And the ED50 [3]?
Answer: Its ED50 is 200 mg/kg.

Question: What about the change in vivo at 12.5 mg/kg (urinary elimination) of the same compound?
Answer: The change in vivo at 12.5 mg/kg was 50%.

Question: And the ED50 [9]?
Answer: Its ED50 is 0.05 mg/kg.

Question: And the Antagonisms against contractions of tied uterus, DE50 [10]?
Answer: The Antagonisms against contractions of tied uterus, DE50 was 0.001 µg/mL.

Question: What about the Antagonisms against contractions of fundus of rat, DE50 [4] of the same compound?
Answer: The Antagonisms against contractions of fundus of rat, DE50 was 0.74 µg/mL.

Question: And the mortality ([5]; 3500 mg/kg/PO)?
Answer: The mortality was roughly 50%.

Question: What about the LD50 [5, 13] of the same compound?
Answer: The LD50 was 3500 mg/kg.

Question: Which ED50 [9] does the source give for `C1=Cc2ccccc2C2(OCC(CN3CCCC3)O2)c2ccccc21` (stereo not drawn) [compound 70301, reference compound] here?
Answer: The ED50 was 0.4 mg/kg.

Question: What about the LD50 [5, 13] of the same compound?
Answer: Its LD50 is 425 mg/kg.

Question: With `CCNCC1COC2(O1)c1ccccc1CCc1ccccc12` (stereo not drawn) [R = C2 H5 (--Z-- = --CH2 --CH2 --), reference compound] as the compound, how does the LD50 ([5]; Table XIII, read-out: LD50) read?
Answer: The LD50 was 550 mg/kg.

Question: And the ED50 [7]?
Answer: The ED50 was roughly 50 mg/kg.

Question: With `CCC(C)NCC1COC2(O1)c1ccccc1CCc1ccccc12` (stereo not drawn) [R = C4 H9 (s) (--Z-- = --CH2 --CH2 --), reference compound] as the compound, how does the LD50 ([5]; Table XIII, read-out: LD50) read?
Answer: Its LD50 is 900 mg/kg.

Question: And the ED50 [7]?
Answer: The ED50 was 45 mg/kg.

Question: What about the “Potentialization of lethal effect of yohimbine” value ([8]; at 50 mg/kg/PO, Table XIII) of the same compound?
Answer: The value was roughly 40%.
